What was measured:
KOPN8 and SEM cell lines = experiment: RNA sequencing of Bryostatin 1-treated ALL cell lines; format: cell-based, human
Method: FIGS. 4A-4E: (FIGS. 4A-4B) KOPN8 or SEM cell lines were exposed to Bryostatin 1 for 16, 24, 48, or 72 hours. RNA was extracted from cells and analyzed using RNAseq. (FIGS. 4C-4E) Cell lines were co-incubated with 1 ng/ml of Bryostatin 1 for 24 hours. […] IL-2 (FIG. 4C), IFN-γ (FIG. 4D), and granzyme B (FIG. 4E) were measured by ELISA from cell culture supernatants. Statistical significance was calculated using an unpaired t-test (**** p<0.0001, *** p<0.0002, ** p<0.0021, * p<0.0332).
Sixteen RNA-seq samples were pooled and sequenced on one NextSeq high output run using Illumina TruSeq Poly A RNA Kit v3 with paired end sequencing. All samples had greater than 30 million pass filter reads with a base call quality above 95% of bases with Q30 and above. Reads of the samples were trimmed for adapters and low-quality bases using Trimmomatic software before alignment with the reference genome Human—hg19 and the annotated transcripts using STAR. The mapping quality statistics were calculated using Picard software and library complexity was measured in terms of unique fragments in the mapped reads using Picard's MarkDuplicate utility. The Partek Flow informatics pipeline was used to generate fold change and differentially expressed gene data as well as for data visualization. Gene set enrichment analysis (GSEA) of the differentially expressed genes was performed as previously described and using standard parameters.

[1] = system: CD22^lo or Nalm6 leukemia; experiment: CAR T cell persistence and phenotype by flow cytometry in leukemia-bearing mice; format: in vivo, NSG mice
Method: FIGS. 9A-9F: (FIGS. 9A-9B) A total of 1×10^5 tumor cells were co-cultured with 1×10^5 mock, CD22, or […] CAR and assessed for IFNγ and IL2 cytokines by ELISA from cell culture supernatants (statistics were calculated using paired t test (*, P<0.0332); FIG. 9A) or Annexin V staining was assessed over time using IncuCyte ZOOM (FIG. 9B). […] (FIG. 9C) NSG mice were injected with 1×10^6 GPF-positive CD22^neg, CD22^lo, or Nalm6 tumor cells on day 0. On day 3, 5×10^6 CD22 or CD22^V1 CAR were injected for treatment. Mice were imaged using IVIS technology and luciferin-D intraperitoneal injections. Luminescence quantification is shown on the right. […] (FIG. 9D) CD22 or CD22^V1 CART were co-incubated with tumor cells. On days 1 and 8, CAR was harvested, stained for flow cytometry, and analyzed on Fortessa flow machine. Statistics were calculated using unpaired t test (*, P<0.0332). (FIGS. 9E-9F) Mice were injected with CD22^lo or Nalm6 leukemia on day 0. […] Bone marrow cells were stained for flow cytometry and analyzed on Fortessa flow machine. Statistics were calculated using unpaired t test (****, P<0.0001; *, P<0.0332).
FIGS. 13A-13F: (FIG. 13A) BIAcore analysis was used to evaluate association and dissociation curves of various scFvs. Note: The calculated dissociation rate constant kd (1.1×10^−6 l/s) is lower than the kd which can be measured by the BIAcore X-100 used here (1.0×10^−5 l/s). […] (FIG. 13B) CD22^V1 or CD22 CART were co-cultured with CD22^neg or CD22^lo leukemia and evaluated at 24 hours for PD1 expression through flow cytometry on a Fortessa flow machine. […] Bone marrow cells were stained for flow cytometry and analyzed on Fortessa flow machine. Statistics were calculated using unpaired t-test (** p<0.0021).
CD22-CAR functionality and anti-leukemic efficacy were evaluated in vivo in Nalm6 xenograft or PDX models with NOD.Cg-Prkdcscid Il2rgtm1Wjl/SzJ (NSG) mice (The Jackson Laboratory and bred in-house) ages 6-10 weeks. […] On day 3, mice received CD22-CAR-transduced T cells or mock-transduced T cells intravenously at the indicated quantity. […]

CCC/C=C/C=C/C(=O)O[C@H]1/C(=C/C(=O)OC)C[C@H]2C[C@H]([C@@H](C)O)OC(=O)C[C@H](O)C[C@@H]3C[C@H](OC(C)=O)C(C)(C)[C@](O)(C[C@@H]4C/C(=C/C(=O)OC)C[C@H](/C=C/C(C)(C)[C@]1(O)O2)O4)O3 [Bryostatin 1]
genes with 2-fold increased expression versus control (KOPN8 and SEM cell lines; KOPN8): 756 genes | genes with a greater than 2-fold change (KOPN8 and SEM cell lines; KOPN8, 24 hours): 1524 genes | CD22 mRNA over the course of treatment (KOPN8 and SEM cell lines; KOPN8 and SEM, 16, 24, 48, 72 hours): Neither cell line showed changes | genes with a 2-fold change (KOPN8 and SEM cell lines; SEM): only one gene | CD22 CART in bone marrow ([1]; 30 days, drug 40 μg/kg once weekly for 2 weeks after CART): slightly increased | central memory and effector memory cells within CD8+ CART population, spleen ([1]; Nalm6 pretreated with drug, seven days after CD22 CAR injection): significant cumulative enrichment | CART activation/exhaustion markers (PD1, TIM3, LAG3) ([1]; with Bryostatin 1 exposure): stable PD1 expression, without increase in TIM3 or LAGS

Source: patent US11939377B2, “Affinity matured CD22-specific monoclonal antibody and uses thereof” (The U.S.A., as represented by the Secretary, Department of …, priority 2018, dated 2024)
